According to patent publication US12454529B2, “Piperazine cyclic ureas” (SIRONAX LTD., priority 2020, dated 2025):

System: HT-29 cells
Assay: HT-29 cell necrosis/necroptosis inhibition (TNF-α + SMAC mimetic + zVAD-FMK; CellTiter-Glo cell viability)
Type: cell-based
Conditions: Homo sapiens, HT-29, 20 h, read-out: EC50 (Cell activity; Necrosis/Necroptosis Inhibitory Activity, Compounds 1-142)
Protocol: Compounds 1-319 (denoted as Compound Nos. 1 through 319 in Table 3 and 4) of the disclosure were tested for binding and cellular RIP1 inhibitory activity following the experimental procedures described below.
• Cell line: HT-29 (ATCC® HTB-38™) • Culture medium: McCOY's 5A, Gibco, Cat No. 16600-082 • FBS, Gibco, Cat No. 10099-141C • Trypsin: Gibco, Cat No. 25200-056 • DMSO: Sigma, Cat No. 67-68-5, 1L • Assay plate: Corning #3903 • Compound dilution plate: Corning #3357 • Inducers: TNFα, GenScript, Cat No. Z01001-50, • SmacM, Cat. No., HY-15989, MedChemExpress (MCE) • Z_VAD FMK, TargetMol, T6013 • Cell Titer-Glo® Luminescent Cell Viability Assay Kit: Promega, Cat No. G7573 • EnVision: PerkinElmer, 2105-0010 Methods Cell Seeding
1. HT-29 cells were checked every day to make sure that they were healthy and growing as expected. They were subjected to sub-culturing when they were approximately 80% confluent.
2. The culture medium, McCOY's 5A medium (Gibco, Cat No. 16600-082) with 10% fetal bovine serum or FBS (Gibco, Cat No. 10099-141C), was pre-warmed in a 37° C. water bath for at least 30 min.
3. When the cells had reached a desired level of confluency of 80% in a T75 flask, the medium was aspirated, and the cells were washed with warm phosphate buffered saline or PBS two times.
4. 2-3 ml fresh warm trypsin (Gibco, Cat No. 25200-056) solution was added to the washed cells. The flask with the cells was transferred to a 37° C. incubator.
5. After 5 minutes, the side of the flask was tapped, and the flask was examined under a microscope for detachment of the cells to the flask. If necessary, the cells were kept in the incubator for an additional 5-10 minutes, with occasional tapping, until lifting was complete.
6. The trypsin reaction was neutralized by transferring 6-9 ml cell culture medium to sterile 15 ml conical tubes, and by centrifuging the cell culture at 300×g for 7 minutes to pellet the cells (supernatant decanted).
7. The cells were resuspended in fresh cell culture medium and the cell counting was performed using a hemocytometer.
8. 100 μl of the resuspended cell culture medium containing ˜5,000 cells were transferred into each well of the sterile 96-well cell culture plate (Corning 3903) and cultured overnight at 37° C. with 5% CO2.
Compound Titration and Treatment
1. All test compounds were dissolved in DMSO (Dimethyl sulfoxide) to create a 20 mM stock.
2. 3 μl of each compound 20 mM stock was mixed with 27 μl DMSO, and the compound solution was further diluted at a titration ratio of 1:3 (20 μl compound solution+40 μl DMSO) till the 10 points end.
3. All culture medium was removed from assay plates filled with HT-29 cell cultures. The cells were then washed with 1 PBS, and resuspended in fresh, FBS-free McCOY's 5A medium containing a cocktail of TNF-α (10 ng/ml), a SMAC mimetic compound (6 μM) and Z-VAD-fluoromethylketone or zVAD-FMK (10 μM) to stimulate the HT-29 cells to increase RIP1 kinase levels and necroptosis.
4. 0.5 μL of the diluted compound solution was added to the corresponding 96-well assay plates.
5. The assay plates were incubated for 20 hours at 37° C. with 5% CO2.
1. The CellTiter-Glo® Luminescent Cell Viability Assay was employed to detect the ATP levels of viable HT-29 cells.
2. The CellTiter-Glo® buffer and the lyophilized substrate were equilibrated to room temperature prior to use.
3. The CellTiter-Glo® substrate was resuspended with CellTiter-Glo® buffer, then mixed by gently vortexing to obtain a homogeneous solution.
4. 20 μl the enzyme/substrate mixture was transferred by multi-channel pipetting into 96-well assay plates.
5. The assay plates were placed on an orbital shaker and the contents were shaken for 3 minutes to induce cell lysis.
6. The assay plates were incubated at room temperature for 10 minutes to stabilize the luminescent signal.
7. The luminescence signals were read and recorded with EnVision.
8. The geometric mean EC50 values were calculated from 10 points response dose with duplicates. In

Row | SMILES | EC50
1 | Cn1cnn(-c2nc(N3CCN(C(=O)N4N=CC[C@H]4c4cc(F)cc(C#N)c4)CC3)ncc2F)c1=O [Compound 140, (S)-3-fluoro-5-(1-(4-(5-fluoro-4-(4-methyl-5-oxo-4,5-dihydro-1H-1,2,4-triazol-1-yl)pyrimidin-2-yl)piperazine-1-carbonyl)-4,5-dihydro-1H-pyrazol-5-yl)benzonitrile] | 0.1 to 100 nM

Same assay, conditions: Homo sapiens, HT-29, 20 h, read-out: EC50 (Cell activity; Necrosis/Necroptosis Inhibitory Activity, Compounds 143-323)

Row | SMILES | EC50
2 | Cc1nc(C(=O)N2CCC2)nn1-c1nc(N2CCN(C(=O)N3N=CC[C@H]3c3cc(F)cc(C#N)c3)CC2)ncc1F [Compound 247, (S)-3-(1-(4-(4-(3-(azetidine-1-carbonyl)-5-methyl-1H-1,2,4-triazol-1-yl)-5-fluoropyrimidin-2-yl)piperazine-1-carbonyl)-4,5-dihydro-1H-pyrazol-5-yl)-5-fluorobenzonitrile] | 0.1 to 100 nM

Same assay, conditions: Homo sapiens; HT-29 cells, TNF-α 10 ng/ml + SMAC mimetic 6 μM + zVAD-FMK 10 μM, 20 hours; geometric mean, 10 points in duplicate; read-out: EC50 (Cell activity; Necrosis/Necroptosis Inhibitory Activity, Compounds 1-142)

Row | SMILES | EC50
3 | O=C(N1CCN(c2nccc(C3=NCCN3)n2)CC1)N1N=CC[C@H]1c1cc(F)cc(F)c1 [Compound 3, (S)-(5-(3,5-difluorophenyl)-4,5-dihydro-1H-pyrazol-1-yl)(4-(4-(4,5-dihydro-1H-imidazol-2-yl)pyrimidin-2-yl)piperazin-1-yl)methanone] | 0.1 to 100 nM
4 | Cc1cc(-c2nc(N3CCN(C(=O)N4N=CC[C@H]4c4cc(F)cc(F)c4)CC3)ncc2F)n(C)n1 [Compound 83, (S)-(5-(3,5-difluorophenyl)-4,5-dihydro-1H-pyrazol-1-yl)(4-(4-(1,3-dimethyl-1H-pyrazol-5-yl)-5-fluoropyrimidin-2-yl)piperazin-1-yl)methanone] | 0.1 to 100 nM
5 | O=C(N1CCN(c2nccc(-c3ccc[nH]3)n2)CC1)N1N=CC[C@H]1c1cc(F)cc(F)c1 [Compound 6, (S)-(4-(4-(1H-pyrrol-2-yl)pyrimidin-2-yl)piperazin-1-yl)(5-(3,5-difluorophenyl)-4,5-dihydro-1H-pyrazol-1-yl)methanone] | 0.1 to 100 nM
6 | Cn1ncnc1-c1nc(N2CCN(C(=O)N3N=CC[C@H]3c3cc(F)cc(C#N)c3)CC2)ncc1F [Compound 66, (S)-3-fluoro-5-(1-(4-(5-fluoro-4-(1-methyl-1H-1,2,4-triazol-5-yl)pyrimidin-2-yl)piperazine-1-carbonyl)-4,5-dihydro-1H-pyrazol-5-yl)benzonitrile] | 0.1 to 100 nM
7 | Cc1nnn(C)c1-c1nc(N2CCN(C(=O)N3N=CC[C@H]3c3cc(F)cc(C#N)c3)CC2)ncc1F [Compound 70, (S)-3-(1-(4-(4-(1,4-dimethyl-1H-1,2,3-triazol-5-yl)-5-fluoropyrimidin-2-yl)piperazine-1-carbonyl)-4,5-dihydro-1H-pyrazol-5-yl)-5-fluorobenzonitrile] | 0.1 to 100 nM
8 | O=C(N1CCN(c2nccc(-c3cc[nH]n3)n2)CC1)N1N=CC[C@H]1c1ccccc1 [Compound 39, (S)-(4-(4-(1H-pyrazol-3-yl)pyrimidin-2-yl)piperazin-1-yl)(5-phenyl-4,5-dihydro-1H-pyrazol-1-yl)methanone] | 0.1 to 100 nM

Same assay, conditions: Homo sapiens; HT-29 cells, TNF-α 10 ng/ml + SMAC mimetic 6 μM + zVAD-FMK 10 μM, 20 hours; geometric mean, 10 points in duplicate; read-out: EC50 (Cell activity; Necrosis/Necroptosis Inhibitory Activity, Compounds 143-323)

Row | SMILES | EC50
9 | Cc1nn(-c2cc(N3CCN(C(=O)N4N=CC[C@H]4c4cc(F)cc(F)c4)CC3)ncn2)c(C)c1C(N)=O [Compound 281, (S)-1-(6-(4-(5-(3,5-difluorophenyl)-4,5-dihydro-1H-pyrazole-1-carbonyl)piperazin-1-yl)pyrimidin-4-yl)-3,5-dimethyl-1H-pyrazole-4-carboxamide] | 0.1 to 100 nM
10 | Cc1nc(C)n(-c2nc(N3CCN(C(=O)N4N=CCC4c4cscn4)CC3)ncc2F)n1 (stereo not shown) [Compound 212, (4-(4-(3,5-dimethyl-1H-1,2,4-triazol-1-yl)-5-fluoropyrimidin-2-yl)piperazin-1-yl)(5-(thiazol-4-yl)-4,5-dihydro-1H-pyrazol-1-yl)methanone] | 100 to 1000 nM
11 | Cn1ncnc1-c1ccc(F)c(N2CCN(C(=O)N3N=CC[C@H]3c3cc(F)cc(C#N)c3)CC2)n1 [Compound 176, (S)-3-fluoro-5-(1-(4-(3-fluoro-6-(1-methyl-1H-1,2,4-triazol-5-yl)pyridin-2-yl)piperazine-1-carbonyl)-4,5-dihydro-1H-pyrazol-5-yl)benzonitrile] | 0.1 to 100 nM
12 | Cc1csc(C2CC=NN2C(=O)N2CCN(c3nc(-c4c(C)cnn4C)ccc3F)CC2)n1 (stereo not shown) [Compound 299, (4-(6-(1,4-dimethyl-1H-pyrazol-5-yl)-3-fluoropyridin-2-yl)piperazinyl)(5-(4-methylthiazol-2-yl)-4,5-dihydro-1H-pyrazol-1-yl)methanone] | 0.1 to 100 nM
13 | Cc1csc(C2CC=NN2C(=O)N2CCN(c3cc(-c4c(C)cnn4C)ncc3F)CC2)n1 (stereo not shown) [Compound 157, (4-(2-(1,4-dimethyl-1H-pyrazol-5-yl)-5-fluoropyridin-4-yl)piperazin-1-yl)(5-(4-methylthiazol-2-yl)-4,5-dihydro-1H-pyrazol-1-yl)methanone] | 100 to 1000 nM
14 | Cn1nc(CO)nc1-c1nc(N2CCN(C(=O)N3N=CC[C@H]3c3cncc(F)c3)CC2)ncc1F [Compound 174, (S)-(4-(5-fluoro-4-(3-(hydroxymethyl)-1-methyl-1H-1,2,4-triazol-5-yl)pyrimidin-2-yl)piperazin-1-yl)(5-(5-fluoropyridin-3-yl)-4,5-dihydro-1H-pyrazol-1-yl)methanone] | 0.1 to 100 nM
15 | Cc1nn(-c2cc(N3CCN(C(=O)N4N=CC[C@H]4c4cncc(F)c4)CC3)ncn2)c(C)c1C#N [Compound 286, (S)-1-(6-(4-(5-(5-fluoropyridin-3-yl)-4,5-dihydro-1H-pyrazole-1-carbonyl)piperazin-1-yl)pyrimidin-4-yl)-3,5-dimethyl-1H-pyrazole-4-carbonitrile] | 0.1 to 100 nM
16 | Cc1nc(C)n(-c2nc(N3CCN(C(=O)N4N=CCC4c4cnc(C)s4)CC3)ncc2F)n1 (stereo not shown) [Compound 291, (4-(4-(3,5-dimethyl-1H-1,2,4-triazol-1-yl)-5-fluoropyrimidin-2-yl)piperazin-1-yl)(5-(2-methylthiazol-5-yl)-4,5-dihydro-1H-pyrazol-1-yl)methanone] | 0.1 to 100 nM
17 | Cc1cnn(C)c1-c1ccc(F)c(N2CCN(C(=O)N3N=CCC3c3cncs3)CC2)n1 (stereo not shown) [Compound 296, (4-(6-(1,4-dimethyl-1H-pyrazol-5-yl)-3-fluoropyridin-2-yl)piperazinyl)(5-(thiazol-5-yl)-4,5-dihydro-1H-pyrazol-1-yl)methanone] | 0.1 to 100 nM
18 | Cc1cnn(C)c1-c1cc(N2CCN(C(=O)N3N=CCC3c3nccs3)CC2)c(F)cn1 (stereo not shown) [Compound 294, (4-(2-(1,4-dimethyl-1H-pyrazol-5-yl)-5-fluoropyridin-4-yl)piperazin-1-yl)(5-(thiazol-2-yl)-4,5-dihydro-1H-pyrazol-1-yl)methanone] | 100 to 1000 nM
19 | Cc1nn(-c2nc(N3CCN(C(=O)N4N=CC[C@H]4c4cc(F)cc(C#N)c4)CC3)ncc2F)c(C)c1S(C)(=O)=O [Compound 204, (S)-3-(1-(4-(4-(3,5-dimethyl-4-(methylsulfonyl)-1H-pyrazol-1-yl)-5-fluoropyrimidinyl)piperazine-1-carbonyl)-4,5-dihydro-1H-pyrazol-5-yl)-5-fluorobenzonitrile] | 0.1 to 100 nM
